How the values were obtained:
Assay type in all cases: biochemical
human pancreatic trypsin = assay: In vitro enzymatic assay for human trypsin (L-BAPNA, OD405)
Method: In Vitro Assay for Human Trypsin
This enzymatic assay was employed to evaluate the ability of the test compounds to inhibit human pancreatic trypsin. IC50 of the test compounds was determined by using KC4A data reduction software (Bio-Tek Instruments) to interpolate percent inhibition from observed Vmax values.
Trypsin assay reactions were performed in a 200 μL mixture containing human pancreatic trypsin at 1 μg/mL in an assay buffer containing 200 mM triethanolamine (TEA), 10 mM calcium chloride, 10% DMSO, pH 7.8. Test compounds dissolved in DMSO were added to trypsin enzyme reactions at varied concentrations, followed by the addition of substrate Nα-Benzoyl-L-Arginine p-Nitroanilide (L-BAPNA) at a final concentration of (0.25 mg/mL). Reactions were incubated for 5 minutes at room temperature prior to measuring the change in OD405 nm for 10 minutes at 21 second intervals with a Powerwave x (Bio-Tek Instruments) microplate reader.

human thrombin = human thrombin (Homo sapiens, UniProt P00734); assay: In vitro colorimetric assay for human thrombin (Nα-Benzoyl-Phe-Val-Arg-p-Nitroanilide, OD405)
Method: In Vitro Assay for Human Thrombin
This colorimetric assay was used to assess the ability of the test compounds to inhibit the human thrombin enzyme. IC50 of the test compounds was determined by using KC4A data reduction software (Bio-Tek Instruments) to interpolate percent inhibition from observed Vmax values.
Thrombin assay reactions were performed in a 200 μL mixture containing human thrombin at (1 U/mL) in an assay buffer containing 100 mM HEPES, 10 mM calcium chloride, and 10% DMSO, pH 7.5. Test compounds dissolved in DMSO were added to thrombin enzyme reactions at varied concentrations, followed by the addition of substrate Nα-Benzoyl-Phe-Val-Arg-p-Nitroanilide at a final concentration of 1 mM. Reactions were incubated for 5 minutes at room temperature prior to measuring the change in OD405 nm for 10 minutes at 21 second intervals with a Powerwave x (Bio-Tek Instruments) microplate reader.

TF/FVIIa = TF/FVIIa (Homo sapiens, UniProt P08709); assay: In vitro amidolytic assay for inhibition of TF/FVIIa (Spectrozyme-FVIIa, pNA absorbance at OD405)
Method: In Vitro Assay for Inhibition of TF/FVIIa
To assess the inhibition of the test compounds against the target enzyme, TF/FVIIa, an amidolytic assay based upon the absorbance of p-Nitroanalide (pNA) at OD405 was utilized. The IC50 of the test compounds was determined by using KC4A data reduction software (Bio-Tek Instruments) to interpolate percent inhibition from observed Vmax values.
TF/FVIIa assay reactions were performed in a 200 μL mixture containing 4 nM FVIIa, 10 nM lipidated tissue factor, in an assay buffer containing 100 mM Tris, pH 7.2, 150 mM NaCl, 5 mM calcium chloride, 0.1% bovine serum albumin (BSA), and 10% dimethyl sulfoxide (DMSO). TF and FVIIa were allowed to equilibrate at room temperature for 15 minutes. Test compounds dissolved in DMSO were incubated at varied concentrations with TF/FVIIa for 10 minutes, followed by addition of 500 µM substrate Spectrozyme-FVIIa. Reactions were incubated for 5 minutes at room temperature prior to measuring the change in OD405 run for 10 minutes at 21 second intervals with a Powerwave x (Bio-Tek Instruments) microplate reader.

Chain of TF/FVIIa (P08709 213-466 limits assumed): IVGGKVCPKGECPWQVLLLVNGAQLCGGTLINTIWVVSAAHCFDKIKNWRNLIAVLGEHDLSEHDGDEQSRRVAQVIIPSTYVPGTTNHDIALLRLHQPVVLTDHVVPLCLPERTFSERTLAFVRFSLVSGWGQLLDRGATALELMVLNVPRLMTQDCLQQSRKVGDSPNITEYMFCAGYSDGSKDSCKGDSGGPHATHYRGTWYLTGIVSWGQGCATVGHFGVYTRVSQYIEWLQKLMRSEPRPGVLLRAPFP
Chain of TF/FVIIa (P08709 61-212 limits assumed): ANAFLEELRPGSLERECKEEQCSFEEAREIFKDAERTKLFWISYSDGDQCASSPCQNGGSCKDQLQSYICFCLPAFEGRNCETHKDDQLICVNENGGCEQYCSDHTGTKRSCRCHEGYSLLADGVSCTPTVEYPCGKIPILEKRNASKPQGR
Chain of TF/FVIIa (P13726 33-295 partner): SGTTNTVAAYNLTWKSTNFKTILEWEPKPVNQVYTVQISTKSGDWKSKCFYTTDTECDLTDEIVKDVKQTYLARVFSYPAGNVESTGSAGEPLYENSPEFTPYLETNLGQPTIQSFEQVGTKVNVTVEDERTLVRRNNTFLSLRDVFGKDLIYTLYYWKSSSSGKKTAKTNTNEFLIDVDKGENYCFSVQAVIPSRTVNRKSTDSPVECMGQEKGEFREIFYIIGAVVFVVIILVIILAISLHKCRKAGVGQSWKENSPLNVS

Compound: CC(C)CNC(=O)c1ccc(-c2ccc(-c3ccncc3)cc2C(=O)Nc2ccc(C(=N)N)cc2)c(C(=O)O)c1
- IC50 (human pancreatic trypsin): > 1000 nM
- IC50 (human thrombin): > 1000 nM
- IC50 (TF/FVIIa): > 100 nM

Compound: CC(C)CNC(=O)c1ccc(-c2ccc(-c3ccc(CO)s3)cc2C(=O)Nc2ccc(C(=N)N)cc2)c(C(=O)O)c1
- IC50 (human pancreatic trypsin): > 1000 nM
- IC50 (human thrombin): > 1000 nM
- IC50 (TF/FVIIa): > 100 nM

Compound: CC(C)CNC(=O)c1ccc(-c2ccc(-c3nccs3)cc2C(=O)Nc2ccc(C(=N)N)cc2)c(C(=O)O)c1
- IC50 (human pancreatic trypsin): > 1000 nM
- IC50 (human thrombin): > 1000 nM
- IC50 (TF/FVIIa): > 100 nM

Compound: CC(C)CNC(=O)c1ccc(-c2ccc(C#CC(C)(C)O)cc2C(=O)Nc2ccc(C(=N)N)cc2)c(C(=O)O)c1
- IC50 (TF/FVIIa): > 100 nM

Compound: CC(C)CNC(=O)c1ccc(-c2cc(Oc3ccccc3)ccc2C(=O)Nc2ccc(C(=N)N)cc2)c(C(=O)O)c1
- IC50 (TF/FVIIa): > 1000 nM

Compound: CC(C)CNC(=O)c1ccc(-c2cc(-c3cccs3)ccc2C(=O)Nc2ccc(C(=N)N)cc2)c(C(=O)O)c1
- IC50 (TF/FVIIa): > 100 nM

Compound: C#CCNC(=O)c1ccc(-c2ccc(-c3ccco3)cc2C(=O)Nc2ccc(C(=N)N)cc2)c(C(=O)O)c1
- IC50 (human pancreatic trypsin): 100 to 1000 nM
- IC50 (human thrombin): > 1000 nM
- IC50 (TF/FVIIa): < 100 nM

Compound: C=Cc1ccc(-c2ccc(C(=O)NC(CCC)CCC)cc2C(=O)O)c(C(=O)Nc2ccc(C(=N)N)cc2)c1
- IC50 (human pancreatic trypsin): 100 to 1000 nM
- IC50 (human thrombin): > 1000 nM
- IC50 (TF/FVIIa): < 100 nM

Compound: N=C(N)c1ccc(NC(=O)c2cc(-c3ccco3)ccc2-c2ccc(C(=O)NCCCCCC(=O)O)cc2C(=O)O)cc1
- IC50 (human pancreatic trypsin): 100 to 1000 nM
- IC50 (human thrombin): > 1000 nM
- IC50 (TF/FVIIa): < 100 nM

Compound: C=Cc1ccc(-c2ccc(C(=O)NCC(C)C)cc2C(=O)O)c(C(=O)Nc2ccc(C(=N)N)cc2)c1
- IC50 (human pancreatic trypsin): 100 to 1000 nM
- IC50 (human thrombin): > 1000 nM
- IC50 (TF/FVIIa): < 100 nM
